Where two headings read alike, the source gives them in different places.
Legend:
[1] = clinical; conditions: human, in vivo
Experimental: This was a phase 1, open‐label study of a single dose of oral soticlestat 300 mg with three treatment arms (NCT05098054)[25]: moderate hepatic impairment (Child‐Pugh B; score ≥7 and ≤9; anticipated enrollment n = 8); mild hepatic impairment (Child‐Pugh A; score ≥5 and ≤6; n = 8); and normal hepatic function (n = 12–24). Screening occurred at an outpatient visit up to 28 days before dosing. Participants were admitted to the clinic the day before dosing and remained until day 7. Follow‐up phone contact occurred 14 ± 2 days after dosing.
The moderate hepatic impairment arm was conducted first, followed by the matched normal hepatic function arm. After enrollment of the mild hepatic impairment arm, up to 12 additional participants could be enrolled for the matched normal hepatic function group to ensure a minimum of 12 participants with normal hepatic function and matching the mean of the mild hepatic impairment arm by age, sex, and BMI. Soticlestat was taken as three 100 mg immediate‐release tablets on day 1 with approximately 240 mL water under fasting conditions (≥10 h before dosing and 4 h post‐dose).
(§1) Medical history and demographic data were recorded at screening. Twelve‐lead ECG, pulse rate, and BP were taken 2, 24, and 144 h after dosing or at early termination, and respiratory rate and temperature were taken 24 and 144 h after dosing or at early termination. Hematology, coagulation, serum chemistry, and urine analysis were conducted 48 and 144 h after dosing or at early termination. Blood samples for pharmacokinetic assessments of soticlestat and its metabolites M‐I and M3 were taken predose and 0.133, 0.25, 0.5, 0.75, 1, 1.5, 2, 4, 6, 8, 10, 14, 24, 36, 48, 72, 96, 120, and 144 h after dose administration or at early termination. Blood samples for plasma protein binding were taken predose and 0.5 and 10 h after dose administration. TEAE monitoring occurred throughout the study and at follow‐up.
The study's primary endpoints were the following pharmacokinetic parameters for soticlestat: C max; area under the total plasma concentration‐time curve from time 0 to infinity (AUC∞); and AUC from time 0 to time of the last quantifiable total plasma concentration (AUClast). The incidences of TEAEs and clinically significant abnormal values for laboratory evaluations, vital signs, ECG parameters, and Columbia‐Suicide Severity Rating Scale were secondary objectives. Exploratory endpoints were plasma pharmacokinetic parameters of soticlestat metabolites M‐I and M3 (C max, AUC∞, AUClast, metabolite‐to‐parent ratio [MPR] C max, MPR AUClast, and MPR AUC∞); additional plasma pharmacokinetic parameters of soticlestat and the metabolites M‐I and M3 (time of first occurrence of C max [t max] and terminal disposition phase half‐life [t ½z]); additional plasma pharmacokinetic parameters of soticlestat (apparent clearance after extravascular administration, calculated using the observed value of the last quantifiable total plasma concentration [CL/F]; apparent volume of distribution during the terminal disposition phase after extravascular administration, calculated using the observed value of the last quantifiable total plasma concentration [Vz/F]); and plasma protein binding of soticlestat: fraction of unbound soticlestat.
Total soticlestat, M‐I, and M3 concentrations and unbound soticlestat concentrations were determined using liquid chromatography–tandem mass spectrometry by CMIC, Inc. (Hoffman Estates, IL, USA). Unbound plasma soticlestat concentrations were measured using ultrafiltration (by CMIC, Inc.). Pharmacokinetic parameters were calculated using Phoenix® WinNonlin® version 8.3.4.
Descriptive statistics were derived for the concentration data: number of observations (n), arithmetic mean (mean), standard deviation (SD), arithmetic percent coefficient of variation (CV%), standard error of the mean, minimum, median, and maximum. […]

[2] = test system: plasma protein; parameters: method as in PMID 37771051; conditions: human, cited from earlier work
[3] = parameters: method as in PMID 33837574; conditions: healthy volunteers, doses 15 to 1350 mg; cited from earlier work
[4] = clinical; assay type: in vitro ADME; conditions: human, plasma, Plasma protein binding, mean
Experimental: Medical history and demographic data were recorded at screening. Twelve‐lead ECG, pulse rate, and BP were taken 2, 24, and 144 h after dosing or at early termination, and respiratory rate and temperature were taken 24 and 144 h after dosing or at early termination. Hematology, coagulation, serum chemistry, and urine analysis were conducted 48 and 144 h after dosing or at early termination. […] Blood samples for plasma protein binding were taken predose and 0.5 and 10 h after dose administration. TEAE monitoring occurred throughout the study and at follow‐up. The study's primary endpoints were the following pharmacokinetic parameters for soticlestat: C max; area under the total plasma concentration‐time curve from time 0 to infinity (AUC∞); and AUC from time 0 to time of the last quantifiable total plasma concentration (AUClast). The incidences of TEAEs and clinically significant abnormal values for laboratory evaluations, vital signs, ECG parameters, and Columbia‐Suicide Severity Rating Scale were secondary objectives. […] Total soticlestat, M‐I, and M3 concentrations and unbound soticlestat concentrations were determined using liquid chromatography–tandem mass spectrometry by CMIC, Inc. (Hoffman Estates, IL, USA). Unbound plasma soticlestat concentrations were measured using ultrafiltration (by CMIC, Inc.). Pharmacokinetic parameters were calculated using Phoenix® WinNonlin® version 8.3.4.

[5] = molecular target: cholesterol 24‐hydroxylase (CH24H); conditions: no method or reference given; read-out: CH24H inhibition IC50; cited from earlier work
[6] = cited from earlier work
[7] = Safety: treatment-emergent adverse events after single oral soticlestat 300 mg; assay type: in vivo, human
Experimental: as §1
The study's primary endpoints were the following pharmacokinetic parameters for soticlestat: C max; area under the total plasma concentration‐time curve from time 0 to infinity (AUC∞); and AUC from time 0 to time of the last quantifiable total plasma concentration (AUClast). The incidences of TEAEs and clinically significant abnormal values for laboratory evaluations, vital signs, ECG parameters, and Columbia‐Suicide Severity Rating Scale were secondary objectives. […]

[8] = 300 mg dose of [14C]soticlestat

## O=C(c1cccnc1-c1ccncc1)N1CCC(O)(Cc2ccccc2)CC1 [soticlestat]
[1]
  Increase in total plasma exposure vs healthy matched participants (preliminary analysis): approximately 3 fold
  Total plasma AUClast higher vs healthy participants (preliminary analysis): approximately 3 fold
  Total plasma AUC∞ higher vs healthy participants (preliminary analysis): approximately 3 fold
[1]; po, 300 mg, Mean ± SD Vz/F, total plasma
  Vd/F: 890 ± 1900 L
[1]; po, 300 mg, Mean ± SD t½z, total plasma
  half-life: 219 ± 58.5 min
[1]; po, 300 mg, Median (range) tmax, total plasma
  Tmax: 30 min
[2]; 0.1 μg/mL
  In vitro plasma protein binding: 94.0%
[2]; 1 μg/mL
  In vitro plasma protein binding: 93.4%
[2]; 10 μg/mL
  In vitro plasma protein binding: 70.6%
[2]
  Main binding protein in plasma: mainly bound to human α‐1‐acid glycoprotein
[3]
  Mean plasma maximum concentration (Cmax): 43.5 to 7950 ng/mL
  Terminal elimination half-life: 49.2 to 430 min
[4]
  fraction unbound: 0.175
[5]
  IC50: 4.5 nM
[6]; [8]
  Administered dose recovered in urine as this substance: 0.1%
  Recovery of total radioactivity in feces: 2.7%
  Recovery of total radioactivity in urine: 94.8%
[6]
  Excreted in urine: < 1%
  Share of soticlestat metabolism accounted for by UGT1A9 and UGT2B4: approximately 90%
[6]; healthy volunteers
  Absolute bioavailability: 12.6%
[7]; all study arms
  TEAEs based on serum chemistry, hematology, coagulation, urinalysis, vital signs, ECG, or Columbia-Suicide Severity Rating Scale: no TEAEs
[7]; in vivo
  Number of TEAEs considered study drug related: two
